For assay [1], the target named is T1, 5HT2B receptors (Homo sapiens, UniProt P41595).
T1 construct: expressed in transfected cells; host or cells: CHO-K1 cells
Kind of assay: Human 5-HT2B functional high throughput screening assay in CHO-K1 cells (calcium flux). The following applies: for EC50: CHO-K1 cells, calcium flux. The assay is classed as cell-based. Put shortly: (§1)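 Agonism is measured as intracellular calcium increase in receptor-overexpressing CHO-K1 cells, read by FLIPR at 25 °C. Responses are expressed relative to serotonin, with EC50 and Emax derived from a 4-parameter logistic curve over 6 concentrations starting at 10 μM.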
In general terms: Calcium flux is commonly read through the fluorescence of an indicator in the cells.

Assay [2] deals with T2, 5HT2C receptors (Homo sapiens, UniProt P28335).
T2 sequence (P28335 33-458): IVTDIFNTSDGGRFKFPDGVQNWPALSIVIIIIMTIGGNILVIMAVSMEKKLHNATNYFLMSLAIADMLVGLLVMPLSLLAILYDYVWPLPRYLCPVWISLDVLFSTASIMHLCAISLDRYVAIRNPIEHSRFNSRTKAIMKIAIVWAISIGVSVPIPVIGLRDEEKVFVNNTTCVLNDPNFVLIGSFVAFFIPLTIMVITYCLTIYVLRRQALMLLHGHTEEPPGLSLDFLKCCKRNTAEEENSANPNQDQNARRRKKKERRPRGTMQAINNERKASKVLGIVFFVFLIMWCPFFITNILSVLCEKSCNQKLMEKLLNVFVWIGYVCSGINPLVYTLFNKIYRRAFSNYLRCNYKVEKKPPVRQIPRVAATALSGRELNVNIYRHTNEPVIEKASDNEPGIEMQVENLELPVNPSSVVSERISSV
The experiment in a line: Human 5-HT2C functional high throughput screening assay in CHO-K1 cells (calcium flux). The following applies: for EC50: CHO-K1 cells, calcium flux; for Emax: 5-HT2C, maximum functional response as percentage relative to the effect of serotonin. On the set-up: expressed in transfected cells; host or cells: CHO-K1 cells. The format is cell-based. Put shortly: as §1

The mark [3] stands for this setting: 5-HT2B agonist activity, read-out: EC50.
Setting [4] is: 5-HT2B, maximum functional response as percentage relative to the effect of serotonin.
Setting [5] is: 5-HT2C agonist activity, read-out: EC50.

Like-named read-outs stand apart in the source and are kept apart here. Some results are limits rather than exact numbers.

The term EC50 denotes the concentration giving half of the maximal effect. The term Emax denotes the greatest response seen or fitted, relative to the assay's reference.

T1 sequence (P41595 whole entry): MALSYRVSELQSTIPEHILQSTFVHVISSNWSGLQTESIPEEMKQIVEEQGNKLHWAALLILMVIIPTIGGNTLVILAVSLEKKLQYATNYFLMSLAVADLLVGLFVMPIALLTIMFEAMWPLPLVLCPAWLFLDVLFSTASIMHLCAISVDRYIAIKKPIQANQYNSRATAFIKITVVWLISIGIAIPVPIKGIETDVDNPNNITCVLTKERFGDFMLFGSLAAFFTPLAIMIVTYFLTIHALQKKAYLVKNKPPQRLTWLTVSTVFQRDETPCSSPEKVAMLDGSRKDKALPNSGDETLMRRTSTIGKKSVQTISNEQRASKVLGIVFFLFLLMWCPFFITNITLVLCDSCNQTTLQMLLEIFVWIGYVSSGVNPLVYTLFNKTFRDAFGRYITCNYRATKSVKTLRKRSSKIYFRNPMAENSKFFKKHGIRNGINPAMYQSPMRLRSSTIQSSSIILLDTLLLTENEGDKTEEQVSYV

For `Fc1ccc(-c2cccc3c2NCC[C@@H]2CNC[C@@H]32)cc1` (relative stereo) [Example 401, Trans-7-(4-fluorophenyl)-1,2,3,3a,4,5,6,10b-octahydropyrrolo[3,4-d][1]benzazepine], the EC50 in assay [1] (setting [3]) was > 10000 nM; in assay [2] (setting [5]) it was 800 nM. Further, the Emax entry in assay [1] (setting [4]) was “inactive”; in assay [2] (CHO-K1, read-out: Emax), 70%.
Consider `COC(=O)c1cccc2c1NCC[C@@H]1CNC[C@@H]21` (relative stereo) [Example 402, Methyl trans-1,2,3,3a,4,5,6,10b-octahydropyrrolo[3,4-d][1]benzazepine-7-carboxylate], for which the Emax in assay [1] (CHO-K1) stood at 75%; in assay [2] (CHO-K1), 100%. For the same molecule, the EC50 amounted to 200 nM in assay [1] (EC50, 5-HT2B agonist activity) and 30 nM in assay [2] (EC50, 5-HT2C agonist activity).
In the case of `Cc1noc(C)c1-c1ccc2c(c1)C(=O)NC[C@@H]1CNC[C@@H]21` (single isomer, unassigned) [Example 245, Trans-8-(3,5-dimethylisoxazol-4-yl)-1,2,3,3a,4,5-hexahydrobenzo[e]pyrrolo[3,4-c]azepin-6(10bH)-one], the Emax in assay [1] (CHO-K1) came to 15%; in assay [2] (CHO-K1), 100%. The EC50 in assay [1] (EC50, 5-HT2B agonist activity) stood at 2000 nM; in assay [2] (EC50, 5-HT2C agonist activity), 50 nM.
Turning to `Cc1noc(C)c1-c1ccc2c(c1)C(=O)NC[C@@H]1CNC[C@@H]21` (single isomer, unassigned) [Example 292, Trans-8-(3,5-dimethyl-1,2-oxazol-4-yl)-2,3,3a,4,5,10b-hexahydropyrrolo[3,4-d][2]benzazepin-6(1H)-one], the figures for the EC50 in assay [1] (5-HT2B agonist activity) and in assay [2] (5-HT2C agonist activity) were 2000 nM and 50 nM, respectively. Also, the Emax in assay [1] (setting [4]) is 15%; in assay [2] it was 100%.
Regarding `C[C@H](O)c1cc(-c2ccc3c(c2)C(=O)NC[C@H]2CN(C)C[C@H]32)ccc1F` (single isomer, unassigned) [Example 352], the EC50 was > 10000 nM in assay [1] (setting [3]) and 0.4 nM in assay [2] (setting [5]). Moreover, the maximum response (Emax) entry is “inactive” in assay [1] (setting [4]) and 105% in assay [2] (CHO-K1, read-out: Emax).
Take `C[C@@H](O)c1cc(-c2ccc3c(c2)C(=O)NC[C@H]2CN(C)C[C@H]32)ccc1F` (single isomer, unassigned) [Example 353]: the EC50 was > 10000 nM in assay [1] (setting [3]) and 0.3 nM in assay [2] (setting [5]). Moreover, the Emax result in assay [1] (setting [4]) was “inactive”; in assay [2] (CHO-K1, read-out: Emax), 110%.
On to `O=C1NC[C@H]2CN(Cc3ccccc3)C[C@@H]2c2c(F)cc(F)cc21` [Example 105, (3aS,10bS)-2-Benzyl-8,10-difluoro-1,2,3,3a,4,5-hexahydrobenzo[c]pyrrolo[3,4-e]azepin-6(10bH)-one], for which the Emax result in assay [1] (setting [4]) was “inactive”; in assay [2] (CHO-K1), > 120%. The EC50 in assay [1] (EC50, 5-HT2B agonist activity) is > 10000 nM; in assay [2] (EC50, 5-HT2C agonist activity) it was 20 nM.
As for `CN1C[C@H]2CNC(=O)c3c(OC(F)(F)F)cccc3[C@@H]2C1` [Example 112, (3aR,10bR)-2-Methyl-7-(trifluoromethoxy)-1,2,3,3a,4,5-hexahydrobenzo[c]pyrrolo[3,4-e]azepin-6(10bH)-one], the maximal response (Emax) entry is “inactive” in assay [1] (setting [4]) and 90% in assay [2] (CHO-K1). Also, the concentration giving a half-maximal response (EC50) in assay [1] (EC50, 5-HT2B agonist activity) was > 10000 nM.
`CN1C[C@@H]2CNC(=O)c3c(OC(F)(F)F)cccc3[C@H]2C1` [Example 113, (3aS,10bS)-2-Methyl-7-(trifluoromethoxy)-1,2,3,3a,4,5-hexahydrobenzo[c]pyrrolo[3,4-e]azepin-6(10bH)-one]: the maximal response (Emax) was 20% in assay [1] (CHO-K1) and 120% in assay [2] (CHO-K1). Further, the half-maximal effective concentration (EC50) in assay [1] (EC50, 5-HT2B agonist activity) is 2000 nM; in assay [2] (EC50, 5-HT2C agonist activity), 5 nM.
As to `CN1C[C@H]2CNC(=O)c3cc(-c4ccc(F)cc4)ccc3[C@@H]2C1` [Example 116, (3aR,10bR)-8-(4-Fluorophenyl)-2-methyl-1,2,3,3a,4,5-hexahydrobenzo[e]pyrrolo[3,4-c]azepin-6(10bH)-one], the EC50 in assay [1] (setting [3]) was > 10000 nM. The Emax entry in assay [1] (setting [4]) was “inactive”; in assay [2] (CHO-K1, read-out: Emax) it was 90%.
On the same counts, the results for `COc1ccc(-c2ccc3c(c2)C(=O)NC[C@@H]2CN(C)C[C@@H]32)cc1` [Example 159, (3aR,10bR)-8-(4-Methoxyphenyl)-2-methyl-1,2,3,3a,4,5-hexahydrobenzo[e]pyrrolo[3,4-c]azepin-6(10bH)-one] are > 10000 nM, “inactive” and 110%.
With `COc1cccc(-c2ccc3c(c2)C(=O)NC[C@H]2CN(C)C[C@H]32)c1` [Example 160, (3aS,10bS)-8-(3-Methoxyphenyl)-2-methyl-1,2,3,3a,4,5-hexahydrobenzo[e]pyrrolo[3,4-c]azepin-6(10bH)-one], the EC50 in assay [1] (setting [3]) was > 10000 nM; in assay [2] (setting [5]), 0.8 nM. The Emax entry in assay [1] (setting [4]) was “inactive”; in assay [2] (CHO-K1, read-out: Emax) it was > 120%.
Consider `COc1cccc(-c2ccc3c(c2)C(=O)NC[C@@H]2CN(C)C[C@@H]32)c1` [Example 161, (3aR,10bR)-8-(3-Methoxyphenyl)-2-methyl-1,2,3,3a,4,5-hexahydrobenzo[e]pyrrolo[3,4-c]azepin-6(10bH)-one], for which the EC50 in assay [1] (setting [3]) was > 10000 nM. The Emax result in assay [1] (setting [4]) was “inactive”; in assay [2] (CHO-K1, read-out: Emax), 110%.
Turning to `CN1C[C@@H]2CNC(=O)c3cc(F)cc(F)c3[C@H]2C1` [Example 162, (3aS,10bS)-8,10-Difluoro-2-methyl-1,2,3,3a,4,5-hexahydrobenzo[e]pyrrolo[3,4-c]azepin-6(10bH)-one], the maximal response (Emax) in assay [1] (CHO-K1) is 40%; in assay [2] (CHO-K1) it was > 120%. In addition, the EC50 in assay [1] (EC50, 5-HT2B agonist activity) stood at 100 nM; in assay [2] (EC50, 5-HT2C agonist activity) it was 8 nM.
On the same counts, the results for `CN1C[C@@H]2CN(C)C(=O)c3cc(F)ccc3[C@H]2C1` [Example 163, (3aR,10bS)-8-Fluoro-2,5-dimethyl-1,2,3,3a,4,5-hexahydrobenzo[e]pyrrolo[3,4-c]azepin-6(10bH)-one] are 20%, > 120%, 800 nM and 60 nM.
As for `O=C1NC[C@H]2CNC[C@@H]2c2ccc(OCc3ccccc3F)cc21` [Example 179, (3aR,10bS)-8-(2-Fluorobenzyloxy)-1,2,3,3a,4,5-hexahydrobenzo[e]pyrrolo[3,4-e]azepin-6(10bH)-one], the Emax result is “inactive” in assay [1] (setting [4]) and > 120% in assay [2] (CHO-K1). The half-maximal effective concentration (EC50) in assay [1] (EC50, 5-HT2B agonist activity) was > 10000 nM; in assay [2] (EC50, 5-HT2C agonist activity), 0.3 nM.
Take `O=C1NC[C@@H]2CNC[C@H]2c2ccc(OCc3ccccc3F)cc21` [Example 180, (3aS,10bR)-8-(2-Fluorobenzyloxy)-1,2,3,3a,4,5-hexahydrobenzo[e]pyrrolo[3,4-c]azepin-6(10bH)-one]: the Emax result was “inactive” in assay [1] (setting [4]) and > 120% in assay [2] (CHO-K1). Also, the concentration giving a half-maximal response (EC50) in assay [1] (EC50, 5-HT2B agonist activity) is > 10000 nM.
Consider `C[C@H](Cc1ccccc1)Oc1ccc2c(c1)C(=O)NC[C@H]1CNC[C@H]21` [Example 181, (3aR,10bS)-8-((R)-1-Phenylpropan-2-yloxy)-1,2,3,3a,4,5-hexahydrobenzo[e]pyrrolo[3,4-c]azepin-6(10bH)-one], for which the EC50 was > 10000 nM in assay [1] (setting [3]) and 10 nM in assay [2] (setting [5]). Further, the Emax entry in assay [1] (setting [4]) was “inactive”; in assay [2] (CHO-K1, read-out: Emax) it was > 120%.
For `CN1C[C@@H]2CNC(=O)c3cc(Cl)ccc3[C@H]2C1` [Example 199, (3aS,10bS)-8-Chloro-2-methyl-1,2,3,3a,4,5-hexahydrobenzo[e]pyrrolo[3,4-c]azepin-6(10bH)-one], the Emax result in assay [1] (setting [4]) is “inactive”; in assay [2] (CHO-K1), > 120%. For the same molecule, the EC50 in assay [1] (EC50, 5-HT2B agonist activity) was > 10000 nM; in assay [2] (EC50, 5-HT2C agonist activity), 10 nM.
For the molecule `CN1C[C@@H]2CNC(=O)c3cc(O)ccc3[C@H]2C1` [Example 200, (3aS,10bS)-8-Hydroxy-2-methyl-1,2,3,3a,4,5-hexahydrobenzo[e]pyrrolo[3,4-c]azepin-6(10bH)-one], the 50% effective concentration (EC50) was > 10000 nM in assay [1] (setting [3]) and 500 nM in assay [2] (setting [5]). Besides, the Emax entry in assay [1] (setting [4]) is “inactive”; in assay [2] (CHO-K1) it was 55%.
Consider `CN1C[C@@H]2CNC(=O)c3cc(OCc4cccc(F)c4)ccc3[C@H]2C1` [Example 206, (3aS,10bS)-8-(3-Fluorobenzyloxy)-2-methyl-1,2,3,3a,4,5-hexahydrobenzo[e]pyrrolo[3,4-c]azepin-6(10bH)-one], for which the EC50 in assay [1] (setting [3]) is > 10000 nM; in assay [2] (setting [5]), 2 nM. Besides, the Emax result was “inactive” in assay [1] (setting [4]) and > 120% in assay [2] (CHO-K1, read-out: Emax).
On the same counts, the results for `CN1C[C@@H]2CNC(=O)c3cc(OCc4ccccc4F)ccc3[C@H]2C1` [Example 207, (3aS,10bS)-8-(2-Fluorobenzyloxy)-2-methyl-1,2,3,3a,4,5-hexahydrobenzo[e]pyrrolo[3,4-c]azepin-6(10bH)-one] are > 10000 nM, 1 nM, “inactive” and > 120%.

(Values after patent US8846951B2 (AbbVie Inc., priority 2009, dated 2014).)
